Source: patent publication US20250255882A1, “TREATMENT OF CARDIAC CONDITION RELATED COGNITIVE DYSFUNCTION” (The Trustees of Columbia University in the City of New York, priority 2024, published 2025)

What was measured:
MI mice [1] = assay: hippocampal FDG metabolism by microPET; format: in vivo, mouse; settings: treated MI mice; percentage of the FDG uptake in the SHAM mice (SHAM 100±3, MI 70±3)
Source text: (§1) FIG. 4A is a schematic representation of a hippocampal brain slice for LTP experiments and the positioning of the stimulating and recording electrodes.
Thereafter, [^18F]fluorodeoxyglucose (FDG) with positron emission tomography (PET) was used to measure energy consumption in neurons, which reflects neuronal communication signals and the integrative local neuronal activity. Deteriorating brain glucose metabolism measured by FDG-PET has been used as a clinical marker for Alzheimer's disease diagnosis. Thus, hippocampal FDG metabolism was evaluated in the experimental groups (FIGS. 4E and 4F).

MI mice [2] = assay: long-term potentiation (fEPSPs) in hippocampal slices; format: in vivo, mouse; settings: slices from treated MI mice; MI decreased LTP versus SHAM
Experimental: as §1
Field excitatory postsynaptic potentials (fEPSPs) were evaluated at the Schaffer collateral using a bipolar electrode placed at the CA3 and recording at the CA1 (FIG. 4A). […] Importantly, MI and treatment with the various compounds after MI had no effect on basal synaptic transmission determined by the input-output curves (I-O; P=0.5; FIG. 4D).

[3] = system: mouse model of HF (myocardial infarction, MI); assay: novel object recognition test (hippocampal-dependent short-term memory); format: in vivo; settings: MI mice, treated; MI 15%±4%, SHAM 48%±5%
Source text: (§2) One-way analysis of variance (ANOVA) was used to compare the difference between the six groups in FIGS. 2B, 2C, 2E and 2F. Tukey's test was used for multiple comparisons; two-way ANOVA was used in FIG. 2D. […] All statistical tests were two sided with the data derived from biologically independent samples.
Next, a novel object recognition test was used to evaluate hippocampal-dependent short-term memory. (see Liu, X. et al. Role of leaky neuronal ryanodine receptors in stress-induced cognitive dysfunction. Cell 150, 1055-1067 (2012); and Bevins, R. A. & Besheer, J. Object recognition in rats and mice: a one-trial non-matching-to-sample learning task to study ‘recognition memory’. Nat. Protoc. 1, 1306-1311 (2006)).

[4] = system: mouse model of HF (myocardial infarction, MI); assay: open field test and elevated plus maze (EPM) test; format: in vivo; settings: MI mice, treated
Source text: as §2, with “FIGS. 2A-2G illustrate a mouse model of heart failure (myocardial infarction) that is associated with cognitive dysfunction. […] One-way” for “One-way”
Because of the complexity of the clinical manifestation of HF patients, the mouse model of HF (myocardial infarction, MI) was used with reduced ejection fraction to evaluate the mechanisms of CD. The open field test and elevated plus maze (EPM) test were used to evaluate the behavioral phenotypes, and spontaneous exploratory activity in the mice. In the open field test, mice were placed at the center of a chamber and allowed to explore for 6 min. […] In the EPM test, MI mice spent […] time in the open arms of the EPM (FIG. 2B) compared to SHAM (0.22±0.04 versus 0.14±0.02; P<0.05). […] As a control, the effects of a Rycal®, ARM036, was studied.

[5] = blood-brain barrier crossing
adrenergic pathway = assay: hippocampal norepinephrine levels and PKA activity; format: in vivo, mouse; settings: treated versus untreated MI mice
Experimental: The hippocampal levels of norepinephrine and PKA activity were measured.

TGF-β pathway = assay: immunoblots of TGF-β, phosphorylated SMAD3 and NOX2 binding to RyR2 in hippocampi; format: in vivo, mouse; settings: hippocampi of treated MI mice
Source text: FIG. 12A includes immunoblots showing expressing levels of TGF-β, phosphorylated SMAD3, total SMAD3, and NOX2 binding to RyR2 in the hippocampi of controls (n=4) and HF patients (n=9). FIG. 12B includes bar graphs depicting the ratio of TGF-β expression normalized to GAPDH, phosphorylated SMAD3 to total SMAD3 and NOX2 binding to RyR2 (IP RyR2). The same quantity of proteins was loaded on two separate gels and blotted separately for SMAD3 and pSMAD3. Individual values are shown with mean±SEM (t-test * p<0.05, Controls vs. HF patients). […] FIG. 12D includes bar graphs depicting the ratio of TGF-β expression normalized to GAPDH, phosphorylated SMAD3 to total SMAD3 and NOX2 binding to RyR2 (IP RyR2). The same quantity of proteins was loaded on two separate gels and blotted separately for SMAD3 and pSMAD3. Individual values are shown with mean±SEM. […] All statistical tests were two-sided. Data are derived from biologically independent samples.
TGF-β has been implicated in CNS disorders including Alzheimer's disease.

[6] = system: mouse model of HF (myocardial infarction, MI); assay: MWM test (long-term spatial learning and memory) with probe trial; format: in vivo; settings: MI mice, treated; for latency to find and reach the hidden platform: day 4 training trials, MI 30±1 s, SHAM 21±2 s
Experimental: as §2
A MWM test was performed to assess hippocampal-dependent long-term spatial learning and memory.
A probe trial was performed on day 5 of the MWM test.

RyR2 [7] = biological target: RyR2 (Mus musculus, UniProt E9Q401); assay: caffeine-induced Ca2+ release in primary hippocampal neurons; format: cell-based; parameters: representative images of 14-d cultured hippocampal neurons stimulated with 10 mM caffeine; endogenous in cells; host or cells: primary hippocampal neurons, 14 d in culture; settings: 10 mM caffeine; hippocampal neurons treated with the adrenergic agonist alone
Experimental: FIG. 5A presents representative images of 14-d cultured hippocampal neurons stimulated with 10 mM caffeine. For each condition, the Ca^2+ levels are shown at baseline, during stimulation and at recovery. […] Individual values are shown with the mean±s.e.m. […] Scale bar, 10 μm. A reduction in caffeine-induced Ca^2+ release indicates a Ca^2+ depleted ER due to persistent RyR2-mediated Ca^2+ leak. Data are derived from biologically independent samples. All statistical tests were two sided.
To determine whether the activation of the adrenergic pathway indeed causes neuronal RyR2-mediated ER Ca^2+ leak, caffeine (10 mM), a well characterized RyR agonist, was used to assess RyR2 function specifically in hippocampal neurons without interference of other cell types such as glial cells or astrocytes.

RyR2 [8] = biological target: RyR2 (Homo sapiens, UniProt Q92736); settings: previously identified binding site; cited from earlier work
Sequence of RyR2 (Homo sapiens, UniProt Q92736) (Q92736 whole entry): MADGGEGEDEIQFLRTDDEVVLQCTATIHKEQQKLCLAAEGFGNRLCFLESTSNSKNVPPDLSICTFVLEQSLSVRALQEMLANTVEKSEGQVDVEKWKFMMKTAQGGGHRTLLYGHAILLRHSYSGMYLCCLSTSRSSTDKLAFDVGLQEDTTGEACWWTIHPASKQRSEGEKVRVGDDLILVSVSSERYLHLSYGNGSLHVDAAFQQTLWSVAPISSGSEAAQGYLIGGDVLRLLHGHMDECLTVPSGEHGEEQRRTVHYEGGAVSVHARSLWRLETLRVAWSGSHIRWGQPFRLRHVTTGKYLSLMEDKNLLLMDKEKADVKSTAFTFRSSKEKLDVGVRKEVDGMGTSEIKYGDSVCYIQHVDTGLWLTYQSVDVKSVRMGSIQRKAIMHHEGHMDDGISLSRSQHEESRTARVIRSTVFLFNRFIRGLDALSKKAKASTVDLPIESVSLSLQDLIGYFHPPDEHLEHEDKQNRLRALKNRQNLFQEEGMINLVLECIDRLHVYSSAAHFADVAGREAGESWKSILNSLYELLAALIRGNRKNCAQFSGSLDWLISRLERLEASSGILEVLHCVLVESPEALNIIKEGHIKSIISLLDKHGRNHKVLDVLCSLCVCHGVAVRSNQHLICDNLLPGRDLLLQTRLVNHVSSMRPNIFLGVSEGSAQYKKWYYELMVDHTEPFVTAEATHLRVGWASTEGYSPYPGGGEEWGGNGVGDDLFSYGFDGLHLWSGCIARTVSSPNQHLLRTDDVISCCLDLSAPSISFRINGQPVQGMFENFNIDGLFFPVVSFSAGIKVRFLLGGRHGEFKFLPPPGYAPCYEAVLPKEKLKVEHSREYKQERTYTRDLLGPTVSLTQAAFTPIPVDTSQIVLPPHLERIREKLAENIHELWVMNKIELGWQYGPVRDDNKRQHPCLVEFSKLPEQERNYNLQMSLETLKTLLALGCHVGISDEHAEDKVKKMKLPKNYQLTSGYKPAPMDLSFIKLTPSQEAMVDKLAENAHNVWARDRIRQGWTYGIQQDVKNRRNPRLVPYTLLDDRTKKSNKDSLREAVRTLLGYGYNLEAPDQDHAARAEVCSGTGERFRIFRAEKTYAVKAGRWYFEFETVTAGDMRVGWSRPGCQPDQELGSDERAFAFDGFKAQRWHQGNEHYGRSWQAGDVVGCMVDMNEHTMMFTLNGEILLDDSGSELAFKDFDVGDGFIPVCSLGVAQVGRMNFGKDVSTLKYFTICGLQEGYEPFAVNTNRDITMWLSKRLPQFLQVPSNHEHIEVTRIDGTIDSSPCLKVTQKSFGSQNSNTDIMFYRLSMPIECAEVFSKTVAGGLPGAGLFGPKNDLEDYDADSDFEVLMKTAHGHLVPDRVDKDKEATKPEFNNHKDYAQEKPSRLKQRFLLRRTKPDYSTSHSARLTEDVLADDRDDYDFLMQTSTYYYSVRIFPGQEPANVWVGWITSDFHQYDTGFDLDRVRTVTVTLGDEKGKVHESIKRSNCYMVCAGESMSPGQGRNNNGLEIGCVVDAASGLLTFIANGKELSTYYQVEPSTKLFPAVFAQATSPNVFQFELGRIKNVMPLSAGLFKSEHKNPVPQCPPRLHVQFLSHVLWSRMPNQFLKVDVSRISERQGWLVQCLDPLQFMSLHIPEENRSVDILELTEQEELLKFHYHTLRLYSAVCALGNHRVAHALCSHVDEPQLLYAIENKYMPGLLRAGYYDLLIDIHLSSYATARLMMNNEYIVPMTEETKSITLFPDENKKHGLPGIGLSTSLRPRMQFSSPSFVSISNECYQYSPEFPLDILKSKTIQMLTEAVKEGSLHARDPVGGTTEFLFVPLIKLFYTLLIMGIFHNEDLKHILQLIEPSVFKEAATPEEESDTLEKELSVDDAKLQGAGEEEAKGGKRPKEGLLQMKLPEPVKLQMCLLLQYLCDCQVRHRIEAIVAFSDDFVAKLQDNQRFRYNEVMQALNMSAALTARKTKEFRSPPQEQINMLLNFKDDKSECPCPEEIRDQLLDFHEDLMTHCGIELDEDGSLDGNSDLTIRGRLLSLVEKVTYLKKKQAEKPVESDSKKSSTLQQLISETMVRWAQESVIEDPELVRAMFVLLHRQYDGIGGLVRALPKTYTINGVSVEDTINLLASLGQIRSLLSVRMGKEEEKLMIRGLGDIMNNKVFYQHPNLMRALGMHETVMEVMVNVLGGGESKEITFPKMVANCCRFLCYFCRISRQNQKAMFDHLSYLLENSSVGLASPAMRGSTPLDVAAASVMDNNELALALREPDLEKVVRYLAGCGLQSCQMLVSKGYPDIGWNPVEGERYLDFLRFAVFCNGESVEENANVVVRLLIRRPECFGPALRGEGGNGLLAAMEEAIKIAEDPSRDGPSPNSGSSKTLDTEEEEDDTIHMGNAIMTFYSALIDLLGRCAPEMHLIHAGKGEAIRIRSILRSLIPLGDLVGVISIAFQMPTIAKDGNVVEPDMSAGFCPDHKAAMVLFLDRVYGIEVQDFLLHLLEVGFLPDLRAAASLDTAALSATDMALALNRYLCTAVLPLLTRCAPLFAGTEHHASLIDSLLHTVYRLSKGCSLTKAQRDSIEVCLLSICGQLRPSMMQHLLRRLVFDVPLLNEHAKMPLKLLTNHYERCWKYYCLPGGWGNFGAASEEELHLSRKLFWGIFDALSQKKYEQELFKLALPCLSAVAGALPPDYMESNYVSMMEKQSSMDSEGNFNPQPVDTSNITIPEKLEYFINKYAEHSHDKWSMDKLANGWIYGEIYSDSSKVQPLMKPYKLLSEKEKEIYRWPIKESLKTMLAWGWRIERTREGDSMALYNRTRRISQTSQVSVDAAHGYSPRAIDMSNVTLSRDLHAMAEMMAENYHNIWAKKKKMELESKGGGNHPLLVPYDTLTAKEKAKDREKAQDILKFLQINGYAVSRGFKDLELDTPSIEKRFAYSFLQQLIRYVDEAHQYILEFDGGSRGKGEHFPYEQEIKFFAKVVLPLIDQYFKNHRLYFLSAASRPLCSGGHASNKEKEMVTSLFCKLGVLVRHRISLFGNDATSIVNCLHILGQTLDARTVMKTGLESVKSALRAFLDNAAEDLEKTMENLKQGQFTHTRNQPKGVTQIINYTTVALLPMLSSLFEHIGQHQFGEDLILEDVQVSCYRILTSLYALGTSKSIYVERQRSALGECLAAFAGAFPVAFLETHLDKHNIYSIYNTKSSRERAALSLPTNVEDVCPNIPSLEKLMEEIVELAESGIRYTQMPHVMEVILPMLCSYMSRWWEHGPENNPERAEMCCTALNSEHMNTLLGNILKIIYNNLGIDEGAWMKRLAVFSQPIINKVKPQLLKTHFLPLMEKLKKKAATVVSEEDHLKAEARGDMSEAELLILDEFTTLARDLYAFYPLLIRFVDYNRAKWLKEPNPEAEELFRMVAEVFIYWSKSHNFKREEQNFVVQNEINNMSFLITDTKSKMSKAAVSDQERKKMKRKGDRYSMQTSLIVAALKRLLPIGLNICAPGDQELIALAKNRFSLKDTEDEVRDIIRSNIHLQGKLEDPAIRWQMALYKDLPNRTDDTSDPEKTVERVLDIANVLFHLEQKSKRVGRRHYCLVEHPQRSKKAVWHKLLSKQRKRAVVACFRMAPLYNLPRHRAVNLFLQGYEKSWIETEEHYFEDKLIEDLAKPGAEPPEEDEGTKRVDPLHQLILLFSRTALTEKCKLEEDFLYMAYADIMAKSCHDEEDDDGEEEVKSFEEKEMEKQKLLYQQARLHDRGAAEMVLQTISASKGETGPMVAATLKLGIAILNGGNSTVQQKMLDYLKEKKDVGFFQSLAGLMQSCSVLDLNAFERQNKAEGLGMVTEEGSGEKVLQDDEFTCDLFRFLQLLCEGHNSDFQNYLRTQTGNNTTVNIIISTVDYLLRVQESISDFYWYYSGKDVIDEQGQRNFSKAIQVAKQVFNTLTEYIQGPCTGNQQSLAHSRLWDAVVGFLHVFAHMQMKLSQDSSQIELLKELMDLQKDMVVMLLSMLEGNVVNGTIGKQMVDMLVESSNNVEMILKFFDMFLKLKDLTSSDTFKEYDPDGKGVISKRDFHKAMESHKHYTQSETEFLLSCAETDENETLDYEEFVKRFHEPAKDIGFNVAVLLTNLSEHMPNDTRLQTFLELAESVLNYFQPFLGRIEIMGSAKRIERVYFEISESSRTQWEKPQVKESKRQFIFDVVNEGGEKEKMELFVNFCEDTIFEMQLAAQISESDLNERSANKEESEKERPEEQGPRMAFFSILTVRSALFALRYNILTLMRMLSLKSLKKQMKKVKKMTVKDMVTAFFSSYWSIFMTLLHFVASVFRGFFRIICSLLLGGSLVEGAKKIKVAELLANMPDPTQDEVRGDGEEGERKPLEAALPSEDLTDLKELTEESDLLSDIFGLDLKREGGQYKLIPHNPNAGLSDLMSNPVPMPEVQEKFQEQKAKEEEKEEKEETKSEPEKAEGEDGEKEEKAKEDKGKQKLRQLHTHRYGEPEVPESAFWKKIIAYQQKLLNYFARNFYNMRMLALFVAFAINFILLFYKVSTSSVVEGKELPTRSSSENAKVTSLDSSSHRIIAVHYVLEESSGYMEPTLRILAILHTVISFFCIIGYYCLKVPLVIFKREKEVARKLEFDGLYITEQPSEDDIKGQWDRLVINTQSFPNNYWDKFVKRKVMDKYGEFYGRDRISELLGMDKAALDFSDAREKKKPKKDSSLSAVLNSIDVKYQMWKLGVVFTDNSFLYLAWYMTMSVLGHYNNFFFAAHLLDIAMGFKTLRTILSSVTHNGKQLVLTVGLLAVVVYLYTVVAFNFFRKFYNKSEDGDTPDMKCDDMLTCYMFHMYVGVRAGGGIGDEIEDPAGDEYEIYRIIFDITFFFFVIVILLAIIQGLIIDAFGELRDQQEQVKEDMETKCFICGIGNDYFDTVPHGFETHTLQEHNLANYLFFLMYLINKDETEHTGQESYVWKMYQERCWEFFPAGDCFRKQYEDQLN
Sequence of RyR2 (Homo sapiens, UniProt Q92736) (P68106 whole entry partner): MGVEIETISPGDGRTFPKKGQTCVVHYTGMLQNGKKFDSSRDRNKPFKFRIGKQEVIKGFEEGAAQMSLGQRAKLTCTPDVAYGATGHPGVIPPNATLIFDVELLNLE

Row | SMILES | hippocampal FDG metabolism (MI mice [1]) | crossing of the blood-brain barrier (BBB) [5] | PKA activity (adrenergic pathway) | brain norepinephrine (adrenergic pathway) | latency to find and reach the hidden platform [6] [s] | also measured
1 | COc1ccc2c(c1)CN(C(=O)C(=O)O)CCS2 [ARM036] | 80±8 | does not cross the blood-brain barrier | no effect | no effect | 29 ± 3 | LTP (hippocampal synaptic plasticity) (MI mice [2]): no effect; discrimination index [3]: 15%±3%; abnormal behaviors in open field test (time center versus periphery) and EPM test (time open-arm versus closed-arm) [4]: no effect; NOX2 binding to hippocampal RyR2 (TGF-β pathway): no effect; TGF-β levels (TGF-β pathway): no effect; phosphorylation of SMAD3 (TGF-β pathway): no effect
2 | CC(C)NCC(O)c1ccc(O)c(O)c1 (centres unmarked) [isoproterenol] | – | – | – | – | – | caffeine-induced Ca2+ release (RyR2 [7]): small Ca^2+ release
3 | COc1ccc2c(c1)CN(Cc1ccc(C(=O)O)cc1)CCS2 [Compound 1] | – | – | – | – | – | effect on primed state of leaky channels (RyR2 [8]): reverse the primed state of leaky channels toward a fully closed state
4 | COc1ccc2c(c1)CN(C)CCS2 [S107] | 114±13 | BBB-permeant | no effect | no effect | 20 ± 2 | target crossings ([6]; 60-s probe trial day 5, MI 2.4±0.3, SHAM 4.6±0.3): 4.2±0.3; time spent in the target quadrant ([6]; 60-s probe trial day 5, MI 17±1 s, SHAM 25±2 s): 26 ± 2 s
